Data taken from patent US20230011916A1, “METHODS OF CANCER TREATMENT USING ANTI-OX40 ANTIBODIES IN COMBINATION WITH PI3 KINASE DELTA INHIBITORS” (BEIGENE, LTD., priority 2019, published 2023).

How the values were obtained:
Type in all cases: in vivo, mouse
EMT-6 cells = experiment: EMT-6 syngeneic breast cancer model in BALB/c mice
Method: EMT-6 cells are of murine breast cancer origin. Female BALB/c mice were implanted intramammary with 5×10^4 EMT-6 cells per 100 μL PBS mice in the second right papilla. After inoculation, mice were randomized into 4 groups with 25 animals in each group according to inoculation order.
The mice were treated with vehicle (0.5% MC), OX86 (a murine specific anti-OX40 antibody), Compound 1 (PI3Kdelta inhibitor), and the combination of OX86 and Compound 1, respectively. OX86 was given at 0.4 mg/kg once per week (QW) by intraperitoneal (i.p.) injection, and Compound 1 was administered at 30 mg/kg twice per day (BID) by oral gavage (p.o.). Tumor volume was determined twice weekly and tumor growth inhibition was determined using the formula described in Example 14 above.

A20 cells = experiment: A20 syngeneic B cell lymphoma model in BALB/c mice; settings: Compound 1 10 mg/kg p.o.
Method: A20 cells are of B cell lymphoma origin. Female BALB/c mice were subcutaneously implanted with 1×10^5 A20 cells in 150 μL PBS mice in the right flank. After inoculation, mice were randomized into 4 groups with 25 animals in each group according to inoculation order. The mice were treated with vehicle (0.5% MC), OX86 (a murine specific anti-OX40 antibody), Compound 1, and the combination of OX86 and Compound 1. OX86 was given at 0.4 mg/kg once a week by intraperitoneal injection, and Compound 1 was administered at 10 mg/kg twice a day by oral gavage. Tumor volume was determined twice weekly and the TGI calculated as described above.

CT26WT cells = experiment: CT26WT syngeneic colon carcinoma model in BALB/c mice; settings: Compound 2A 10 mg/kg p.o.
Method: CT26WT cells are of colon cancer origin. Female BALB/c mice were subcutaneously implanted with 1×10^5 CT26WT cells in 100 μL PBS in the right flank. After inoculation, mice were randomized into 4 groups according to inoculation order. The mice were treated with vehicle (0.5% MC) as a control. Antibody 1A7.grl (sequence disclosed in US2015/0307617) was confirmed to bind mouse OX40 in house.
[…] Compound 2A was administered as single agent at 10 mg/kg twice a day by oral gavage. The 1A7.gr1 antibody in combination with Compound 2A was administered as combination therapy at the same doses described above for each therapeutic given as a single agent. Tumor volume was determined twice weekly, and the TGI calculated as described above.

[1] = OX86 0.4 mg/kg QW i.p., Compound 1 30 mg/kg BID p.o.

SMILES	Mean Tumor Volume on Day 22 (mean ± SEM) (EMT-6 cells; [1]) [mm^3]	Tumor Free Animal (EMT-6 cells; [1]) [%]	TGI on Day 22 (EMT-6 cells; OX86 0.4 mg/kg QW×4 i.p., Compound 1 30 mg/kg BID×22 p.o.) [%]	Mean Tumor Volume on Day 26 (mean ± SEM) (A20 cells; OX86 0.4 mg/kg QW i.p.) [mm^3]	Tumor Free Animals at Day 47 (A20 cells; OX86 0.4 mg/kg QW i.p.) [%]	TGI on Day 26 (A20 cells; OX86 0.4 mg/kg QW×4 i.p.) [%]	Mean Tumor Volume on Day 25 (mean ± SEM) (CT26WT cells; 1A7.gr1 2 mg/kg QW i.p.) [mm^3]	Tumor Free Animals at Day 35 (CT26WT cells; 1A7.gr1 2 mg/kg QW i.p.) [%]	TGI on Day 25 (CT26WT cells; 1A7.gr1 2 mg/kg QW×4 i.p.) [%]
Cc1nc([C@@H](C)c2cc(Cl)c(F)c(C(=O)NCCN3CCN(C)CC3)c2OC(C)C)n2ccnc(N)c12 [Compound 1, (S)-3-(1-(8-amino-1-methylimidazo[1,5-a]pyrazin-3-yl)ethyl)-5-chloro-6-fluoro-2-isopropoxy-N-(2-(4-methylpiperazin-1-yl)ethyl)benzamide]	758.1 ± 100.6	4	26	683.9 ± 89.7	0	7			
CC(C)Oc1c([C@H](C)c2nc(Cl)c3c(N)nccn23)cc(Cl)c(F)c1-c1ccc(C(F)(F)F)nc1 [Compound 2A, 1-chloro-3-(1-(5-chloro-4-fluoro-2-isopropoxy-3-(6-(trifluoromethyl)pyridin-3-yl)phenyl)ethyl) imidazo[1,5-a]pyrazin-8-amine]							941.6 ± 207.8	7	58
